From ChEMBL document CHEMBL1124923, “A novel, nonsteroidal inhibitor of androgen binding to the rat androgen binding protein: diethyl [[[3-(2,6-dimethyl-4-pyridinyl)-4-fluorophenyl]amino]methylene] propanedioate” (J Med Chem, 1990)

These compounds were tested against T1, Sex hormone-binding globulin (Rattus norvegicus, UniProt P08689) (assay: Inhibition of rat androgen binding protein (rABP) (n=9)).
T1 sequence (P08689 whole entry): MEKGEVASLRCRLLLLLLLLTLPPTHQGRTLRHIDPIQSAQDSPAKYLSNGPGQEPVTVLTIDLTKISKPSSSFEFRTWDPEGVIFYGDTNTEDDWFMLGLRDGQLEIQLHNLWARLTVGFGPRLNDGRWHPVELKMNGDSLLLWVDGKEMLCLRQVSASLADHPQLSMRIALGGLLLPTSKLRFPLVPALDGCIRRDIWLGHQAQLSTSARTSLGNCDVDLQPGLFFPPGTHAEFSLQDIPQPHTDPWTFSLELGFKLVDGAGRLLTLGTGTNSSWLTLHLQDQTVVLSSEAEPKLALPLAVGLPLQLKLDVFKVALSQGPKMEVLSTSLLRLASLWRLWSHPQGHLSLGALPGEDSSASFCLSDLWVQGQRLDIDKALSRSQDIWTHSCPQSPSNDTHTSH
Compound `C[C@]1(O)CC[C@H]2[C@@H]3CCC4=CC(=O)CCC4=C3C=C[C@@]21C` [METRIBOLONE] has an IC50 of 3.7 nM.

What follows are compounds tested against T2, Sex hormone-binding globulin (Homo sapiens) (UniProt P04278) (assay: In vitro relative binding affinity against hSHBG (human sex hormone binding globulin)).
T2 sequence (whole entry): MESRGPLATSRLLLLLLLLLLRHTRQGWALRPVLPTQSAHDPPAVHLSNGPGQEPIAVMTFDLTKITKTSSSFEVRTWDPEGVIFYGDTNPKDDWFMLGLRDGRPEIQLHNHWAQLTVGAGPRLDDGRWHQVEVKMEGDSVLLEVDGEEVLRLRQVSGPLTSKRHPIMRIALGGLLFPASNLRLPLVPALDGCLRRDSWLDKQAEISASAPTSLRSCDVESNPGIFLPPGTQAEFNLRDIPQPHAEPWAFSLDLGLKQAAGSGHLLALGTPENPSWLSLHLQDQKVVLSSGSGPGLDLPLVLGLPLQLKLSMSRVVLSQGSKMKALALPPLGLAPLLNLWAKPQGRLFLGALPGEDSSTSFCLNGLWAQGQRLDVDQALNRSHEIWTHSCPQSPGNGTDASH
`Cc1cc(-c2cc([N+](=O)[O-])ccc2F)cc(C)n1` was tested, and the relative binding affinity (RBA) was under 0.01.
`CCOC(=O)C(/C=N/c1cccc(-c2cc(C)nc(C)c2)c1)=C(\O)OCC` showed a relative binding affinity (RBA) of under 0.01.
`C[C@]1(O)CC[C@H]2[C@@H]3CCC4=CC(=O)CCC4=C3C=C[C@@]21C` [METRIBOLONE] was tested, and the relative binding affinity (RBA) was 0.2.
With `Cc1cc2c(c(C)n1)c(=O)oc1ccccc12` the relative binding affinity (RBA) was under 0.01.
`CCOC(=O)C(/C=N/c1ccc(F)c(-c2cc(C)nc(C)c2)c1)=C(/O)OCC` showed a relative binding affinity (RBA) of under 0.01.
`Cc1cc(-c2ccccc2F)cc(C)n1` was tested, and the relative binding affinity (RBA) was under 0.01.
`Cc1cc(-c2cc(N)ccc2F)cc(C)n1` gave a relative binding affinity (RBA) of under 0.01.
